Experimental data reported in patent US8518956B2, “1-(1-(2-ethoxyethyl)-3-ethyl-7-(4-methylpyridin-2-ylamino)-1H-pyrazolo[4,3-d]pyrimidin-5-yl) piperidine-4-carboxylic acid and salts thereof” (priority 2005, dated 2013).
Where two headings read alike, the source gives them in different places.

Tests used:
[1] = system: spontaneously hypertensive rats (SHR); test: Method 12: SHR Rat Combination Therapy, blood pressure by telemetry; format: in vivo; conditions: 0.007% in drinking water, day 7
PDE6 enzyme = conditions: read-out: METHOD 2: PDE6 IC50; Table F, WO2004096810 examples
From the text: Method 2: Human Retina PDE6 Enzyme Inhibition Scintillation Proximity Assay (SPA)
The inhibition of PDE6 enzyme activity by a test compound can be measured in accordance with the in vitro assay of Method 1, but instead using semi-purified PDE6 enzyme isolated from human, bovine or canine retina in place of PDE5 enzyme. […] [3H]GMP binds to yttrium silicate SPA beads and is detected by scintillation counting. • PDE6 Purification: PDE6 can be isolated and purified from the following: Soluble rod PDE6/Rod Outer Segment PDE6 from Bovine eyes (Charles River Ltd, France); Cone PDE6 from Canine eyes (LAS); or Soluble rod and Cone PDE6 from Human eyes (I.I.A.M.).
While supporting the eye with the cornea uppermost, make a small incision through the conjunctiva below the level of the iris. The incision should be sufficient to allow the humor to escape through the cut. Using fine scissors, cut around the cornea to enable it to be lifted off as a flap. Using a small hook, engage the lens and gently pull it out of orbit, taking care not to pull out the retina at the same time. Allow the retina to drop down of its own accord to the base of the orbit.
Lift the retina with care and locate the optic nerve. Cut through the optic nerve and transfer the retina to a small dish containing a few ml of homogenisation buffer. Gently float the retina out on the surface of the buffer and remove any obvious pigmented material from the iris. Place the retina in a second dish with clean buffer to remove last traces of pigment and then transfer to a 50 ml Corning Costar centrifuge tube (Sigma) and keep on ice. • PDE6 Isolation and Purification from Retina: Allow 2 mls of the homogenisation buffer per bovine retina and 1 ml per retina for dog and human. Homogenise using hand-held homogeniser 3×5 second bursts cooling on ice between each burst. Filter homogenate through two layers of surgical gauze. Spin at 100,000 g for 60 minutes at 4° C. […] Run through FPLC (Pharmacia FPLC LKB/FRAC-100, Pharmacia) or aliquot and store in liquid nitrogen as needed. Method 2A: Alternative Human Retina PDE6 Enzyme Inhibition Scintillation Proximity Assay (SPA)

PDE5 enzyme = target: T1, PDE5 enzyme (Homo sapiens, UniProt O76074); test: Method 1: Human Platelet PDE5 Enzyme Inhibition Scintillation Proximity Assay; format: biochemical; conditions: METHOD 1: PDE5 IC50, Table B, WO2004096810 examples
T1 construct: The PDE5 enzyme isolated from human platelets; from tissue; host or cells: human platelets
Summary of the method: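 IC50 fitted from 10-point half-log dose-response curves run in duplicate, with inhibition relative to uninhibited controls. SPA beads capture [3H]GMP produced when platelet-derived PDE5 acts for 60 min at 30 °C on 500 nM cGMP (3:1 cold:labelled) in pH 7.4 Tris/MgCl2/BSA buffer.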

PDE11 enzyme = target: T2, PDE11 enzyme (Homo sapiens, UniProt Q9HCR9, DUP921-921); test: Method 3: Human Recombinant PDE11 Enzyme Inhibition Scintillation Proximity Assay (SPA); format: biochemical; conditions: WO2004096810 examples
T2 construct: FLAG (N); made in house; host or cells: Sf9 insect cells (baculovirus, pFastBac)
T2 sequence (Q9HCR9 with tags, fused parts or gaps DUP921-921 limits assumed): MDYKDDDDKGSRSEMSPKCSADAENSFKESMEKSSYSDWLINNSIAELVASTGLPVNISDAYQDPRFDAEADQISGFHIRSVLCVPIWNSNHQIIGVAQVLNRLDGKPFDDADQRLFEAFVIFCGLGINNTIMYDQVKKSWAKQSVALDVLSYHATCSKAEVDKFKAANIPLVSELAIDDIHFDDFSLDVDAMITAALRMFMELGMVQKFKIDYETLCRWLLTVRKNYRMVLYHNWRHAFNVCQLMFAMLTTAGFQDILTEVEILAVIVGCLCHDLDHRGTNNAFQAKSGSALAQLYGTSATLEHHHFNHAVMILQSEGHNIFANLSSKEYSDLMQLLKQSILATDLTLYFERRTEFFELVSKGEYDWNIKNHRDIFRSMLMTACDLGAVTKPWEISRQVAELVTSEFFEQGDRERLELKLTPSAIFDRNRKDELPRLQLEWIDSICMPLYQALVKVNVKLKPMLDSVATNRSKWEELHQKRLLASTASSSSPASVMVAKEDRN
Experimental: Method 3: Human Recombinant PDE11 Enzyme Inhibition Scintillation Proximity Assay (SPA)
PDE11 Expression and Purification:
Incubate at 27° C. with 220 rpm shaking for 48 hours. Harvest the infected cells by pelleting at 2000 rpm for 10 minutes at 4° C. Store the infected cell pellet at −80° C. until ready for purification. Resuspend the thawed cell pellets to 1×10^7 cells/ml (=20 ml buffer consisting of 20 mM Hepes (pH7.2), 1 mM EDTA, 20 mM sucrose, 150 mM NaCl and protease inhibitor tablets). Mix thoroughly and allow to stand on ice for 10 minutes. Sonicate for 5×5 seconds, on ice. Spin the mixture at 12,000 rpm for 10 minutes at 4° C. in SS34. Store the insoluble pellet at −80° C., and proceed to the purification of the soluble material. • (b) Purification: Prepare the column (1.0 cm diameter, Kontes) by rinsing the empty column twice with TBS. Then mix beads (Anti-FLAG M2 Agarose, Sigma) with TBS and add to the column—allow the beads to settle. Wash the column with 3 column volumes of 0.1M glycine (pH3.5). […] Apply the extract to the column and allow the extract to enter by gravity flow. Reapply the flow-through. Wash the column with 15 column volumes of TBS. Elute the protein with 5×1 ml aliquots of FLAG peptide (Sigma) (i.e., 100 ug/ml in TBS). Elute the remaining protein with 1 ml 0.1M glycine, and immediately add 25 ul 1M Tris pH8 to neutralize. Method 3A: Alternative Human Recombinant PDE11 Enzyme Inhibition Scintillation Proximity Assay (SPA)

[2] = Table F, read-out: METHOD 3: PDE11 IC50

CCOC(=O)[C@H](CCc1ccccc1)N[C@@H](C)C(=O)N1CCC[C@H]1C(=O)O [Enalapril, enalapril]
maximal reduction of blood pressure from pre-dose baseline in comparison to vehicle treated group [1]: 22±2 mmHg

Cc1nccc(Nc2nc(N3CCN[C@H](C)C3)nc3c(C)nn(CCOCC(F)(F)F)c23)n1 [WO2004096810 Example 246]
IC50 (PDE6 enzyme): 657 nM | IC50 (PDE5 enzyme): 4.46 nM | IC50 (PDE11 enzyme; [2]): 4320 nM

CCc1nn(CCOCC(F)(F)F)c2c(Nc3ccnnc3)nc(N3CCN[C@H](C)C3)nc12 [WO2004096810 Example 248]
IC50 (PDE6 enzyme): 9.92 nM | IC50 (PDE5 enzyme): 0.3 nM | IC50 (PDE11 enzyme; [2]): 316 nM

CCc1nn(CCOCC(F)(F)F)c2c(Nc3ccncn3)nc(N3CCN[C@H](C)C3)nc12 [WO2004096810 Example 249]
IC50 (PDE6 enzyme): 5.1 nM | IC50 (PDE5 enzyme): 0.16 nM | IC50 (PDE11 enzyme; [2]): 1190 nM

CCc1nn(CCOCC(F)(F)F)c2c(Nc3ccnc(C)n3)nc(N3CCN[C@H](C)C3)nc12 [WO2004096810 Example 250]
IC50 (PDE6 enzyme): 221 nM | IC50 (PDE5 enzyme): 2.37 nM | IC50 (PDE11 enzyme; [2]): 3120 nM

CCc1nn(CCOCC(F)(F)F)c2c(Nc3cc(C)ncn3)nc(N(C)C3CCN(C)CC3)nc12 [WO2004096810 Example 251]
IC50 (PDE6 enzyme): 9.51 nM | IC50 (PDE5 enzyme): 0.25 nM | IC50 (PDE11 enzyme; METHOD 3: PDE11 IC50, Table F): 1860 nM

COCc1nn(CCOCC(F)(F)F)c2c(Nc3cccc(C)n3)nc(N3CCN[C@H](C)C3)nc12 [WO2004096810 Example 252]
IC50 (PDE6 enzyme): 307 nM | IC50 (PDE5 enzyme): 2.81 nM | IC50 (PDE11 enzyme; [2]): 874 nM

COCc1nn(CCOCC(F)(F)F)c2c(Nc3cccc(C)c3)nc(N3CCN[C@H](C)C3)nc12 [WO2004096810 Example 253]
IC50 (PDE6 enzyme): 100 nM | IC50 (PDE5 enzyme): 1.2 nM | IC50 (PDE11 enzyme; [2]): 312 nM

CCN(C)c1nc(Nc2ccc(=O)n(C)c2)c2c(n1)c(COC)nn2CCOCC(F)(F)F [WO2004096810 Example 254]
IC50 (PDE6 enzyme): 188 nM | IC50 (PDE5 enzyme): 0.59 nM | IC50 (PDE11 enzyme; [2]): 2880 nM

CCOCc1nn(CCOCC(F)(F)F)c2c(Nc3cccc(C)n3)nc(N3CCN[C@H](C)C3)nc12 [WO2004096810 Example 255]
IC50 (PDE6 enzyme): 207 nM | IC50 (PDE5 enzyme): 1.43 nM | IC50 (PDE11 enzyme; [2]): 937 nM

CCOCc1nn(CCOCC(F)(F)F)c2c(Nc3cc(C)ccn3)nc(N3CCN[C@H](C)C3)nc12 [WO2004096810 Example 256]
IC50 (PDE6 enzyme): 275 nM | IC50 (PDE5 enzyme): 3.82 nM | IC50 (PDE11 enzyme; [2]): 913 nM

Cc1cccc(Nc2nc(N3CCNCC3)nc3c(C)nn(CCOCC(F)(F)F)c23)n1 [WO2004096810 Example 258]
IC50 (PDE6 enzyme): 198 nM | IC50 (PDE5 enzyme): 1.99 nM | IC50 (PDE11 enzyme; [2]): 215 nM

COCc1nn(CCOCC(F)(F)F)c2c(Nc3cc(C)ccn3)nc(N3CC4CCC(C3)N4)nc12 [WO2004096810 Example 259]
IC50 (PDE6 enzyme): 204 nM | IC50 (PDE5 enzyme): 3.74 nM | IC50 (PDE11 enzyme; METHOD 3: PDE11 IC50, Table F): 199 nM
